Experimental data published in patent US20040110676A1, “Methods for modulating cell survival” (priority 2000, published 2004).

Tests used:
[1] = Body weight of transgenic mice over-expressing wild-type htt; type: in vivo; details: transgenic mice aged 5-8 months over-expressing wild-type htt
Text: One of the roles of the pro-survival (e.g. anti-apoptotic) function of wild-type htt may be in control of tissue mass and cellular proliferation. Increased levels of wild-type htt expression can lead to increased body tissue mass and may predispose mice to the development of tumors. The effect of over-expression of human wild-type htt on the body weight of transgenic mice was compared to wild-type mice (FIG. 16). […] The average body weight was approximately 25% greater for the transgenic mice compared to wild-type. […] Over production of cells in the body can have a variety of unwanted outcomes including but not limited to obesity or cancer. This may be due to decreased naturally occurring apoptosis or increased cellular proliferation.

[2] = Retrospective analysis of tumor development in transgenic mouse colony; type: in vivo, mice
Protocol: A retrospective analysis was performed to examine the total numbers of mice (identified by the animal colony health staff) that developed tumors in the colony of transgenic mice. The records of all mice diagnosed with tumors over a 6 month period were examined, in a group of mice over-expressing wild-type human htt and their wild-type littermates. […] The average age of tumor development was younger in the transgenic group 13.8 months compared to 17.1 months for wild-type littermates. The majority of identified tumors in male mice were testicular tumors.

[3] = test system: NIH/3T3 cells; assay: Anoikis assay on poly-HEMA coated plates, annexin-V-FITC/PI; type: cell-based, murine; details: detached, 8 hours, p<0.05 vs parental cells
Text: Using the murine transformed fibroblast cell line, NIH/3T3, the anoikis-resistance properties of wild type htt (15 glutamine repeat) and mutant htt (138 glutamine repeat) were investigated. NIH/3T3 cells require a matrix for attachment in order to experience optimum growing conditions. When detached from the supporting matrix, they experience a high rate of apoptosis. NIH/3T3 cells were transfected with a mammalian expression vector containing wild type htt (15 glutamine repeat) or mutant htt (138 glutamine repeat). Untransfected and transfected NIH/3T3 cells were grown on cell culture plates, whose plastic surface served as a substrate for matrix deposition and subsequent cellular attachment, or on poly-HEMA coated cell culture plates. The nonionic nature of poly-HEMA inhibits both matrix deposition and subsequent cell attachment. […] The cells were cultured in DMEM with 10% serum for 8 hours under attached conditions on plastic plates or under detached conditions on poly-HEMA-coated plastic plates. Cells were harvested, counted and viability was assessed via annexin-V-FITC and propidium iodide (PI) staining.

[4] = test system: NIH3T3 cells; assay: Cellular proliferation after transient transfection, colorometric assay of cell number; type: cell-based
Protocol: The ability of NIH3T3 cells to overcome contact inhibition when transfected with different gene constructs has been used for many years to assess oncogenic potential of certain genes and to identify potential oncogenes. Cellular proliferation was assessed following transient transfections of NIH3T3 cells using a standardised colorometric assay of cell number. The effect of htt on cellular growth was examined and compared to the effect of a known oncogene, ras (FIG. 17). NIH3T3 cells transfected with htt constructs show a significant increase in cellular proliferation (5-6 fold increase in proliferation compared to control vector) that is similar to the effect of ras.

[5] = test system: hippocampal neurons; assay: Kainic acid-induced seizure neurodegeneration in YAC transgenic mice; type: in vivo
Protocol: Yeast artificial chromosome (YAC) transgenic mice were generated that over-express wild-type human htt at 2-3 times the levels of endogenous htt in wild-type mice (FVB/NJ) (Hodgson et al.(1996) Hum. Mol. Genet. 5, 1875-1885). Fifteen of these transgenic and 23 control FVB/NJ mice 4-8 months of age each received a single intraperitoneal injection of 25 mg/kg kainic acid (KA) or an equal volume of vehicle (PBS). Intraperitoneal injections of kainic acid injections cause prolonged seizures in mice, and each mouse was observed continuously for two hours following injection. The occurrence, severity, and duration of seizures was recorded.
(§1) One week following KA injection, brains were removed from one group of the mice and immediately frozen in isopentene on dry ice. Serial 30 μm coronal cryostat sections were cut through the entire hippocampus. After every fifth section, two sections were removed for quantitative analysis and fixed in 3% paraformaldehyde for 30 minutes in preparation for histochemical staining. Degenerating neurons were identified in hippocampal sections by Fluoro-Jade™ histochemistry (Histo-Chem Inc.), silver staining (FD Neurotechnologies) and by TUNEL™ (Boehringer Mannheim). Fluoro-Jade™ is a fluorescent stain that labels degenerating neurons in fixed brain sections. The total number of degenerated hippocampal neurons labeled with Fluoro-Jade™ was recorded from the CA1, CA3, and total hippocampus regions of each section selected for quantitative analysis. Slide-mounted sections were viewed with a Zeiss (Axiovert) fluorescent microscope, digital photomicrographs were captured with a cooled CCD camera (Princeton), and degenerating hippocampal neurons manually counted in a blinded fashion. To assess the role of caspase activation in this process, the hippocampus and cerebellum were removed from a second group of animals 8 hours following KA-induced seizures. Caspase activity was measured in homogenized hippocampal and cerebellar samples using the fluorogenic substrate acetylated DEVD aminofluorocoumarin. DEVD-ase activity was standardized to protein content as determined by standard Lowry analysis.

[6] = test system: NIH3T3 cells; assay: Soft agar colony formation and transformation of retrovirally transfected cells; type: cell-based
Protocol: Retroviral introduction of the S421 mutants into NIH3T3 cells was used to examine the oncogenic (proliferative) effects of phosphorylation on serine 421. […] To test the oncogenic potential of htt and to examine the effect of phosphorylation of htt at S421 on cell proliferation, a soft agar assay was conducted in NIH3T3 cells (FIG. 21). […] Mutant htt (HD138) transfection leads to no (0%) soft agar colonies.

[7] = test system: DEVD-ase activity (caspase-2, -3, -7); assay: DEVD-ase (caspase) activity after kainic acid-induced seizures; type: in vivo, mice; details: 8 hours after KA-induced seizures
Protocol: as §1, with “To assess the role of caspase activation in this process, the hippocampus and cerebellum were removed from a second group of animals 8 hours following KA-induced seizures.” left out

With “wild-type htt: wild-type human huntingtin protein, polyglutamine tract of less than 35 glutamines; over-expressed in YAC line 212 mice or transfected (15 glutamine repeat)” the “average body weight greater than wild-type mice” value [1] was “approximately 25%”, the “mice identified with tumors that were transgenic” value ([2]; 6 month period, 38/45) was 84.5% and the “average age of tumor development” value ([2]; transgenic group, wild-type littermates 17.1 months) was 13.8 months. The “protection from cell death induced by anoikis” value [3] was “Protection from cell death induced by anoikis”, the “increase in proliferation compared to control vector” value [4] was 5-6 fold and the “average number of degenerating neurons per animal (Fluoro-Jade)” value ([5]; CA1 region, 25 mg/kg KA i.p., one week, control 2360) was 3. The “average number of degenerating neurons per animal (Fluoro-Jade)” value ([5]; CA3 region, 25 mg/kg KA i.p., one week, control 2003) was 79, the “fold less degenerating hippocampal neurons than control animals” value ([5]; after KA-induced seizures) was “approximately 50 fold” and the “TUNEL labeled apoptotic hippocampal neurons” value ([5]; after KA-induced seizures, transgenic mice) was “few apoptotic hippocampal neurons”. For the same substance, the “argyrophyllic labelling of neuronal soma (silver staining)” value ([5]; hippocampal sections after KA-induced seizures, transgenic vs wild-type mice) was “dramatically reduced”, the “average number of degenerating hippocampal neurons per animal (Fluoro-Jade)” value ([5]; total hippocampus, mice expressing 2-3 times endogenous htt levels, 25 mg/kg KA i.p., one week, control 4362) was 81 and the soft agar colonies ([6]; retrovirally transfected NIH3T3 cells, control cells about 5%) was “about 15%”. For the same substance, the “increase in number of colonies over control cells” value ([6]; soft agar, NIH3T3 cells) was 3 fold, the morphologic transformation ([6]; stable retroviral transfection of NIH3T3 cells) was “malignant, morphologic transformation” and the “cerebellar caspase activation (DEVD-ase activity)” value ([7]; cerebellum, wild-type mice 8.68 +/−1.67, no significant difference) was 13.66 +/−2.32. For the same substance, the “hippocampal caspase activation (DEVD-ase activity)” value ([7]; hippocampus, wild-type mice 20.8 +/−1.77, P=0.02) was 14.5 +/−1.49.
